Results reported in patent US8278306B2 (Vertex Pharmaceuticals Incorporated, priority 2006, dated 2012).

Key:
CYP2C19 = CYP2C19 (Homo sapiens, UniProt P33261); test: Cytochrome P450 isozyme inhibition, fluorescent Vivid substrate; format: in vitro ADME; conditions: 5 nM CYP2C19, 10 μM Vivid 2C19 Blue, 60 minutes
Procedure: (§1) Selected compounds of the invention were assayed for their ability to inhibit various cytochrome P450 isozymes, such as, for example CYP2D6, CYP2C9, CYP1A2, CYP2C19, CYP3A4, CYP2C9, and CYP3A4 (human liver microsome). Such assays are described by Crespi et al., Anal. Biochem. 248:188-90, 1997; Ekins et al., J. Pharmacol. Exp. Ther. 290, 429-38, 1999; and Ekins et al., J. Pharmacol. Exp. Ther. 291, 424-33, 1999. In a typical isozyme inhibition experiment, test compounds are placed into a microwell on a microtiter plate as an 8 nL solution (2 mM in 75% DMSO/water). The plate is centrifuged for 2 minutes at approximately 1000 rpm to shift the compound to the bottom of the well. Polyvinylpyrrolidone (PVP/10K, 100 nL, 0.2% in 75% DMSO/water) is added to the well and this excipient also centrifuged for 2 minutes at approximately 1000 rpm to ensure mixing with the compound. The plates containing the wells are dried in vacuo. Distilled water (800 nL) is added to the wells containing compound, the background control wells, and the positive control wells, followed by the addition of 200 nL of phosphate buffer (500 mM potassium phosphate butter at pH=8.4). The positive control cells contain a drug such as, for example, miconazole. Insect baculosomes (PanVera P2315) in […] phosphate buffer was added to the background control wells and the plate was scanned for compound fluorescence. […] Therefore, CYP450 isozyme (400 nL) and recycling buffer (3.3 mM glucose-6-phosphate, 0.4 units/mL glucose-6-phosphate dehydrogenase, 100 mM MgCl2, and 0.00025% Antifoam 289) in 100 mM phosphate buffer was added to each well containing compound and background control to obtain the following concentrations: 5 nM CYP3A4, 10 nM CYP2C9, 5 nM CYP1A2, 5 nM CYP2C19, and 20 nM CYP2D6. After incubation for 60 minutes, the wells were read with a fluorescent plate reader.

CYP1A2 = biological target: T1, CYP1A2 (Homo sapiens, UniProt P05177); test: as above; format: in vitro ADME; conditions: 5 nM CYP1A2, 2 μM Vivid 1A2 Blue, 60 minutes
T1 sequence (P05177 1-516): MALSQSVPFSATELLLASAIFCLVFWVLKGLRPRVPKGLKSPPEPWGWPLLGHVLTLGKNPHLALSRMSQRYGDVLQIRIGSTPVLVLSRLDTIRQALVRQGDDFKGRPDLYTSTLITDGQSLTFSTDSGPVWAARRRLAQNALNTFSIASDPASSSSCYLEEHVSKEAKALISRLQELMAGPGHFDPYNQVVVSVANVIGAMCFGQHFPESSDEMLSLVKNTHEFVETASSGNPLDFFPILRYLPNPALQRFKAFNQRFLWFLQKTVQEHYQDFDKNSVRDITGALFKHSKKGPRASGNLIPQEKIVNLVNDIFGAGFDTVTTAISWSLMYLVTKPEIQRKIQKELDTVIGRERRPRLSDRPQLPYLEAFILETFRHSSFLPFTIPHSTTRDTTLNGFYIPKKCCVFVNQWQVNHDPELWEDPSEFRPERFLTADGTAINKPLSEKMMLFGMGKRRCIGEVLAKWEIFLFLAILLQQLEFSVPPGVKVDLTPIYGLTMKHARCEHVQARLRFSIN
Procedure: as §1

CYP2D6 = CYP2D6 (Homo sapiens, UniProt P10635); test: as above; format: in vitro ADME; conditions: 20 nM CYP2D6, 10 μM Vivid 2D6 Blue, 60 minutes
Sequence of CYP2D6 (P10635 whole entry): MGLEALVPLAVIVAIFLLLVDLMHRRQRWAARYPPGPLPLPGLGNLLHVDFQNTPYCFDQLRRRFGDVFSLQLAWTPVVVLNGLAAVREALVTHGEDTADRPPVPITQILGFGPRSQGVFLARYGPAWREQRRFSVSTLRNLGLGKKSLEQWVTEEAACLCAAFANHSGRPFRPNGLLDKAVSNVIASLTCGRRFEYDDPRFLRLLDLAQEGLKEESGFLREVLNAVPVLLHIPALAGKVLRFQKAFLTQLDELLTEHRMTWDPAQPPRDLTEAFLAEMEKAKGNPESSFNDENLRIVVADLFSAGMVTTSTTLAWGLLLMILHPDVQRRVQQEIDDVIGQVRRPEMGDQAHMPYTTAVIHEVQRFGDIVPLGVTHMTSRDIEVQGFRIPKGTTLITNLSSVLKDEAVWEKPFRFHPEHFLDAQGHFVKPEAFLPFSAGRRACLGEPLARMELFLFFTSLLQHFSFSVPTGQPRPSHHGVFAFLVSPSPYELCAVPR
Procedure: as §1

CYP2C9 = CYP2C9 (Homo sapiens, UniProt P11712); test: as above; format: in vitro ADME; conditions: 10 nM CYP2C9, 1 μM Vivid 2C9 Green, 60 minutes
Sequence of CYP2C9 (P11712 whole entry): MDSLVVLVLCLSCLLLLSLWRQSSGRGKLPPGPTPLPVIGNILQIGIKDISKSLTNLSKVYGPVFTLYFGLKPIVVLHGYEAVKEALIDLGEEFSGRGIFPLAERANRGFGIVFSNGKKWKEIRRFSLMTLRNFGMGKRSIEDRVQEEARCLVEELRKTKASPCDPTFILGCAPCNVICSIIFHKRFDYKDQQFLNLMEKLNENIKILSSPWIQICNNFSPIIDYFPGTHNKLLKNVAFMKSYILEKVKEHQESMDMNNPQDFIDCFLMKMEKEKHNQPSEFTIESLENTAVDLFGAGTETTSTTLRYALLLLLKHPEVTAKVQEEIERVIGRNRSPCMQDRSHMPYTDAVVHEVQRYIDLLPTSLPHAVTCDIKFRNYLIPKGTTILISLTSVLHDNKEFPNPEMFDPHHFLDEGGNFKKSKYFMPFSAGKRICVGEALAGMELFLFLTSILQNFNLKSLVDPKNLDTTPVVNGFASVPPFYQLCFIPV
Procedure: as §1

ROCK I (AA 6-553) = biological target: T2, ROCK I (AA 6-553) (Homo sapiens, UniProt Q13464); test: ROCK inhibition assay, standard coupled enzyme system; format: biochemical; conditions: 45 nM ROCK I, 45 μM ATP, 200 μM peptide, 30° C.
T2 construct: ROCK I (AA 6-553)
T2 sequence (Q13464 6-553, species assumed): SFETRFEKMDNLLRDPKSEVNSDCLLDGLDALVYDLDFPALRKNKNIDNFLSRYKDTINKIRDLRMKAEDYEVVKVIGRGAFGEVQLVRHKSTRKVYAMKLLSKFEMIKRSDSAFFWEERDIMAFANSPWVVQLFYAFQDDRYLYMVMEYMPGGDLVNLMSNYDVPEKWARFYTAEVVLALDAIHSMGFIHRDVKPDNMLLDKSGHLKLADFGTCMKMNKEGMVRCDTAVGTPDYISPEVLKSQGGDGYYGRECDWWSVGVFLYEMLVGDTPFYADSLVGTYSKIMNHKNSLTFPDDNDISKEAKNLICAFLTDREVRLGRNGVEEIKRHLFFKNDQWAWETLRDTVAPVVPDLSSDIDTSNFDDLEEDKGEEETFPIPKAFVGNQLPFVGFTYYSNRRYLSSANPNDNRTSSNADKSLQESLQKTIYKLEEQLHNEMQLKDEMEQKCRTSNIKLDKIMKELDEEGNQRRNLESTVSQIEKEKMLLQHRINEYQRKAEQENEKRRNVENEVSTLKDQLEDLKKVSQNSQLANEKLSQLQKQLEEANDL
Procedure: Reactions were carried out in a solution containing 100 mM HEPES (pH 7.5), 10 mM MgCl2, 25 mM NaCl, 2 mM DTT and 1.5% DMSO.

CYP3A4 = CYP3A4 (Homo sapiens, UniProt P08684); test: Cytochrome P450 isozyme inhibition, fluorescent Vivid substrate; format: in vitro ADME; conditions: 5 nM CYP3A4, 5 μM Vivid 3A4 Red, 60 minutes
Sequence of CYP3A4 (P08684 whole entry): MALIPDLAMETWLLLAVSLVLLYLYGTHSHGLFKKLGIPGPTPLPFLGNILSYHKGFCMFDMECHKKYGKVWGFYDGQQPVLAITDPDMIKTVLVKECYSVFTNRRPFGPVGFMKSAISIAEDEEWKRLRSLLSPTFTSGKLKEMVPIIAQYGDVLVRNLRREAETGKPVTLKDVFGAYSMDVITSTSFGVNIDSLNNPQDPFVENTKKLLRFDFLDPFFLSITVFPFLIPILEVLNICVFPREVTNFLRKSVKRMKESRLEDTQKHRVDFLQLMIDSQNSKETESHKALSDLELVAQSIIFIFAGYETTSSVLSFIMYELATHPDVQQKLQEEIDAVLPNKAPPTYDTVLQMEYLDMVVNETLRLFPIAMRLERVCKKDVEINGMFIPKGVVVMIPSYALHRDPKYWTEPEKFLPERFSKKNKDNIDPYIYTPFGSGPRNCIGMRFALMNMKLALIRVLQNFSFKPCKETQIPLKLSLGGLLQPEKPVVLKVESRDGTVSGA
Procedure: Selected compounds of the invention were assayed for their ability to inhibit various cytochrome P450 isozymes, such as, for example CYP2D6, CYP2C9, CYP1A2, CYP2C19, CYP3A4, CYP2C9, and CYP3A4 (human liver microsome). Such assays are described by Crespi et al., Anal. Biochem. 248:188-90, 1997; Ekins et al., J. Pharmacol. Exp. Ther. 290, 429-38, 1999; and Ekins et al., J. Pharmacol. Exp. Ther. 291, 424-33, 1999. […] The plate is centrifuged for 2 minutes at approximately 1000 rpm to shift the compound to the bottom of the well. […] Distilled water (800 nL) is added to the wells containing compound, the background control wells, and the positive control wells, followed by the addition of 200 nL of phosphate buffer (500 mM potassium phosphate butter at pH=8.4). The positive control cells contain a drug such as, for example, miconazole. Insect baculosomes (PanVera […]) in […] phosphate buffer was added to the background control wells and the plate was scanned for compound fluorescence. […] After incubation for 60 minutes, the wells were read with a fluorescent plate reader.

[1] = biological target: T3, CYP3A4 (human liver microsome) (Homo sapiens, UniProt P08684); test: Cytochrome P450 inhibition, human liver microsome; format: in vitro ADME; conditions: read-out: CYP3A4 (HLM) Ki
T3 construct: CYP3A4 (human liver microsome); from tissue; host or cells: human liver microsomes
T3 sequence (P08684 whole entry): as above
Procedure: Selected compounds of the invention were assayed for their ability to inhibit various cytochrome P450 isozymes, such as, for example CYP2D6, CYP2C9, CYP1A2, CYP2C19, CYP3A4, CYP2C9, and CYP3A4 (human liver microsome). Such assays are described by Crespi et al., Anal. Biochem. 248:188-90, 1997; Ekins et al., J. Pharmacol. Exp. Ther. 290, 429-38, 1999; and Ekins et al., J. Pharmacol. Exp. Ther. 291, 424-33, 1999. […] The plate is centrifuged for 2 minutes at approximately 1000 rpm to shift the compound to the bottom of the well. […] Distilled water (800 nL) is added to the wells containing compound, the background control wells, and the positive control wells, followed by the addition of 200 nL of phosphate buffer (500 mM potassium phosphate butter at pH=8.4). The positive control cells contain a drug such as, for example, miconazole. […] After incubation for 60 minutes, the wells were read with a fluorescent plate reader.

Sequence of CYP2C19 (P33261 whole entry): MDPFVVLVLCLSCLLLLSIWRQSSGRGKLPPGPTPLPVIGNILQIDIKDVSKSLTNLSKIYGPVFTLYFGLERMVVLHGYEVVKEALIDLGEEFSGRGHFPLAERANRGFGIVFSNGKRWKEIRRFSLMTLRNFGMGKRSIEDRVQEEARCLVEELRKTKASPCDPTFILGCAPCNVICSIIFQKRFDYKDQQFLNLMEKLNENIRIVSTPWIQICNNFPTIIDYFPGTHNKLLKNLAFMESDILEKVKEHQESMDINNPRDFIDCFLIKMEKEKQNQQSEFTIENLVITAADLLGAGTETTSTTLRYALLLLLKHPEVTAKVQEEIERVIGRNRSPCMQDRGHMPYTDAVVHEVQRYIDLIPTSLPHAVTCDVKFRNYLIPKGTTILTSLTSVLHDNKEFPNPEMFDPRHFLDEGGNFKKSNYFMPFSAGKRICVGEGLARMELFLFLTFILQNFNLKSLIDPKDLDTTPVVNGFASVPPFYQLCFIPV

Ki (CYP2C19) [µM]	Ki (CYP1A2) [µM]	Ki (CYP2D6) [µM]	Ki (CYP2C9) [µM]	Ki (ROCK I (AA 6-553)) [µM]	Ki (CYP3A4) [µM]	Ki [1] [µM]	Structure (SMILES)
1 to 10	> 10	> 10	1 to 10				COc1cccc(CC(=O)Nc2cc(-c3ccnc(F)c3)cs2)c1 [Compound 61]
	> 10		1 to 10				COc1cccc(CC(=O)Nc2cc(-c3ccnc(Cl)c3)cs2)c1 [Compound 62]
> 10	1 to 10	1 to 10	1 to 10				COc1cccc(CC(=O)Nc2cc(-c3ccnc(N)c3)cs2)c1 [Compound 64, N-(4-(2-aminopyridin-4-yl)thiophen-2-yl)-2-(3-methoxyphenyl)acetamide]
1 to 10	> 10	< 1	1 to 10	< 0.1	1 to 10	1 to 10	Nc1cc(-c2csc(NC(=O)Cc3cccc(OCCCC4CCNCC4)c3)c2)ccn1 [Compound 77]
1 to 10	> 10	> 10	1 to 10	0.1 to 1	1 to 10	1 to 10	COc1cccc(CC(=O)Nc2cc(-c3ccnc(C)c3)cs2)c1 [Compound 80]
1 to 10	> 10	> 10	> 10	< 0.1	> 10	> 10	Cc1cc(-c2csc(NC(=O)Cc3cccc(O)c3)c2)ccn1 [Compound 85]
> 10	> 10		> 10	> 1	> 10	> 10	Cc1cc(-c2csc(NC(=O)Cc3cccc(OCCN4CCCCC4)c3)c2)ccn1 [Compound 94]
1 to 10	1 to 10		1 to 10	< 0.1	1 to 10	1 to 10	O=C(Cc1cccc(O)c1)Nc1cc(-c2ccnc(Cl)c2)cs1 [Compound 101]

More lines, now with the values behind:

Structure (SMILES)	Ki (CYP2C19) [µM]	Ki (CYP1A2) [µM]	Ki (CYP2D6) [µM]	Ki (CYP2C9) [µM]	Ki (ROCK I (AA 6-553)) [µM]	Ki (CYP3A4) [µM]	Ki [1] [µM]
O=C(Cc1cccc(OCCCC2CCNCC2)c1)Nc1cc(-c2ccnc(F)c2)cs1 [Compound 72]	1 to 10	> 10	1 to 10		< 0.1	1 to 10	> 10
CN1CCN(CCOc2cccc(CC(=O)Nc3cc(-c4ccnc(F)c4)cs3)c2)CC1 [Compound 73]		> 10	> 10	> 10	< 0.1	> 10	> 10
CN1CCN(CCCOc2cccc(CC(=O)Nc3cc(-c4ccnc(F)c4)cs3)c2)CC1 [Compound 74]	> 10	> 10	> 10	> 10	< 0.1	> 10	> 10
Cc1cc(-c2csc(NC(=O)Cc3cccc(OCCCN4CCNCC4)c3)c2)ccn1 [Compound 89]	1 to 10	> 10		> 10	< 0.1	> 10	> 10
Cc1cc(-c2csc(NC(=O)Cc3cccc(OCCCN4CCN(C)CC4)c3)c2)ccn1 [Compound 90]		> 10		> 10	0.1 to 1	> 10	> 10
Cc1cc(-c2csc(NC(=O)Cc3cccc(OCCN4CCNCC4)c3)c2)ccn1 [Compound 92]	> 10	> 10		> 10	0.1 to 1	> 10	> 10
Cc1cc(-c2csc(NC(=O)Cc3cccc(OCCN4CCN(C)CC4)c3)c2)ccn1 [Compound 93]	> 10	> 10		> 10	0.1 to 1	> 10	> 10
O=C(Cc1cccc(OCCCN2CCNCC2)c1)Nc1cc(-c2ccnc(Cl)c2)cs1 [Compound 102]	1 to 10	> 10	> 10	> 10	< 0.1	1 to 10	> 10
CN1CCN(CCCOc2cccc(CC(=O)Nc3cc(-c4ccnc(Cl)c4)cs3)c2)CC1 [Compound 103]	> 10	> 10	> 10	> 10	< 0.1	> 10	> 10
O=C(Cc1cc2c(cc1Cl)OCO2)Nc1cc(-c2ccnc(Cl)c2)cs1 [Compound 105]	< 1	1 to 10	< 1	1 to 10	< 0.1	1 to 10	1 to 10
